From patent US7662789B2, “Peptide substance restoring myocardium function” (“Access Bioscience” CJSC, priority 2004, dated 2010)
Like-named read-outs stand apart in the source and are kept apart here. Marks after values point to notes of the source that are not given here. Where a SMILES comes first, the peptide text is derived from it.

How the values were obtained:
[1] = system: experimental myocardium infarction in rats; assay: Experimental myocardium infarction by left coronary artery vasoligation in rats; format: in vivo; conditions: for Necrosis zone size, % of ventricle mass: 0.05 μg per animal i.p. 1, 3, 5 h after occlusion; for Death rate: 20 animals per group
Method: The experiment was conducted on 40 white mongrel rats each weighing 180-200 g. The animals were randomly subdivided into two groups, 20 animals in each. Myocardium infarction (MI) was induced by vasoligation of the left coronary artery. Ala-Glu-Asp-Arg tetrapeptide was administered to the animals intraperitoneally in the dose of 0.05 μg per animal in sterile 0.9% NaCl solution three times—in 1, 3 and 5 hours after coronary occlusion. Rats were decapitated in 6 and 24 hours after the surgery. Animals subjected to the surgery, which intraperitoneally received 0.9% NaCl solution, served as the control. MI zone size was identified gravimetrically. Myocardium fragments were fixed for light and electronic microscopy, part of the material was frozen in liquid nitrogen for biochemical studies.

[2] = system: adrenalin dystrophy in rat myocardium; assay: Adrenalin dystrophy in rat myocardium; format: in vivo, rats; conditions: for Diene conjugates content / Malon dialdegide content: 24 hours
Method: The experiment was conducted on 30 white mongrel rats with body weight of 180-200 g. The animals were randomly subdivided into three groups, each consisting of 10 animals. Adrenalin dystrophy was induced by administering the fresh adrenalin solution (“Serva”, USA) intraperitoneally in the dose of 2 mg/kg. The control animals received 0.9% NaCl solution. Then the experimental animals were in 1 and 5 hours treated with Ala-Glu-Asp-Arg (SEQ ID NO:1) tetrapeptide in the dose of 0.05 μg per animal in sterile 0.9% NaCl solution. In 4 hours since the beginning of the experiment cardiac muscle bioptates weighing approximately 10 mg were taken for the identification of cardiac dehydrogenases activity and glycogen content in the myocardium. In 24 hours the animals were killed by momentary decapitation. Left ventricle fragments were frozen in […]. In cryostatic slices the activity of succinatedehydrogenase (SDH) was histochemically identified, as well as of NADN-dehydrogenase (NADN-DH), lactatedehydrogenase and glycogen content.

[3] = system: rat myocardium, TMTD poisoning; assay: Toxicochemical myocardiopathy by tetramethyl thiuram disulfide (TMTD) poisoning in rats; format: in vivo
Method: The experiment was conducted on 40 white mongrel rats with body weight of 220-230 g. The animals were randomly subdivided into four groups. The intoxication of animals with tetramethyl thiuram disulfide (TMTD) industrial poison was conducted in the form of 20-day course of 5% oil TMTD solution administration in the dose of 25 mg/kg intragastrically. The tetrapeptide was administered during the last 10 days of the experiment intramuscularly in the dose of 0.05 μg per animals in sterile 0.9% NaCl solution. Upon expiry of the indicated terms both the control and experimental animals were killed by momentary decapitation. Myocardium fragments were fixed by 12% formalin solution. Paraphin slices were stained by hematoxylin-eosine, as well as by Van Gison, Brachet, with sudan III, IV. Intact animals served as the control.

[4] = system: organotypic cardiac culture explants; conditions: 3 days incubation
Method: Cardiac tissue explants (from the left and right ventricles) of pubertal Wistar rats were cultivated in petri dishes with collagen bottom cover. The nutritious medium was composed of 35% Eagle's medium, 35% Hanx solution, 25% calf fetal serum and 5% of chicken embryonic extract with added glucose, insulin, gentamycin and glutamin. Ala-Glu-Asp-Arg (SEQ ID NO:1) tetrapeptide was added into the cultural medium in fixed concentrations, from 0.01 to 20.0 ng per ml of nutritious medium. After 3 days of incubation at the temperature of 37° C. the increase in the area of explants was identified using phase contrast microscope. Biological activity of the preparation was expressed in the change of square index (SI) of the explants cultivated in the medium containing the peptide, as compared to the control.

[5] = 0.05 μg per animal i.p., 6 hours
[6] = 0.05 μg per animal i.p., 24 hours
[7] = adrenalin + 0.05 μg per animal, liver
[8] = adrenalin + tetrapeptide, 4 hours
[9] = TMTD 25 mg/kg 20 days + tetrapeptide 0.05 μg per animal i.m. last 10 days
[10] = intact animals, 0.05 μg per animal i.m. 10 days

For C[C@H](N)C(=O)N[C@@H](CCC(=O)O)C(=O)N[C@@H](CC(=O)O)C(=O)N[C@@H](CCCNC(=N)N)C(=O)O [Tetrapeptide, L-alanyl-L-glutamyl-L-aspartyl-L-arginine] (H-AEDR-OH), the “Necrosis zone size, % of ventricle mass” value ([1]; 6 hours) was 38.1 ± 1.8 % of ventricle mass, the “Necrosis zone size, % of ventricle mass” value ([1]; 24 hours) was 49.6 ± 1.6 % of ventricle mass and the “Content in the blood serum: CPK” value [1, 5] was 961 ± 52 nmole/s · 1. The “Content in the blood serum: LDH” value [1, 5] was 309 ± 16 nmole/s · 1, the “Content in the blood serum: glucose” value [1, 5] was 3.12 ± 0.09 mmol/L and the “Glycogen content in the myocardium” value [1, 5] was 1.05 ± 0.12 g/kg of the tissue. For the same compound, the Death rate [1, 5] was 2, the “Content in the blood serum: CPK” value [1, 6] was 923 ± 38 nmole/s · 1 and the “Content in the blood serum: LDH” value [1, 6] was 201 ± 15 nmole/s · 1. For the same compound, the “Content in the blood serum: glucose” value [1, 6] was 3.01 ± 0.11 mmol/L, the “Glycogen content in the myocardium” value [1, 6] was 1.18 ± 0.12 g/kg of the tissue and the Death rate [1, 6] was 1. The “Mortality rate during the first 24 hours after infarction” value ([1]; 0.05 μg per animal i.p., control 45%) was 15%, the “Decrease of glucose content in the blood” value ([1]; acute myocardium ischemia, versus control) was roughly 1.5 times and the “Coefficient of mitochondria energy efficiency” value ([1]; electronograms, 24 hours since beginning of MI, control 41.5±2.4) was 93.2±2.3%. For the same compound, the Quantity of diene conjugates in the myocardium ([2]; 24 hours after induction of dystrophy, control 176±24) was 110 ± 17 nmol/g, the Diene conjugates content ([2]; adrenalin 2 mg/kg i.p. + 0.05 μg per animal at 1 and 5 h, heart) was 110 ± 17 nmole/g of tissue and the Malon dialdegide content ([2]; adrenalin + 0.05 μg per animal, heart) was 173 ± 25 nmole/g of tissue. The Diene conjugates content [2, 7] was 92 ± 11 nmole/g of tissue, the Malon dialdegide content [2, 7] was 270 ± 56 nmole/g of tissue and the “Enzyme activity in the myocardium tissue: LDH” value [2, 8] was 0.154 ± 0.011 rel. optical density unit. For the same compound, the “Enzyme activity in the myocardium tissue: NADN-DH” value [2, 8] was 0.344 + 0.019 rel. optical density unit, the “Enzyme activity in the myocardium tissue: SDH” value [2, 8] was 0.284 ± 0.013 rel. optical density unit and the Glycogen content ([2]; adrenalin + tetrapeptide, myocardium, 4 hours) was 0.168±0.021 rel. optical density unit. For the same compound, the Cardiomyocyte nuclei volume [3, 9] was 365.4 ± 13.8** μm^3, the Nuclear-cytoplasmatic ratio [3, 9] was 0.28±0.03 and the Parenchyma volume [3, 9] was 0.83 ± 0.02** cm^3/cm^3. The Stroma volume [3, 9] was 0.180±0.02 cm^3/cm^3, the “Vessels volume, Vcap/Vcmc” value [3, 9] was 0.07 ± 0.02 Vcap/Vcmc and the “Increase of the filling of the myocardium” value ([3]; intact animals, versus control) was 11%. For the same compound, the “Increase of the volume of cardiomyocytes' nuclei” value ([3]; intact animals, versus control) was 14%, the Cardiomyocyte nuclei volume [3, 10] was 386.2 ± 2.1* μm^3 and the Nuclear-cytoplasmatic ratio [3, 10] was 0.40 ± 0.04. The Parenchyma volume [3, 10] was 0.82 ± 0.04 cm^3/cm^3, the Stroma volume [3, 10] was 0.159 ± 0.05 cm^3/cm^3 and the “Vessels volume, Vcap/Vcmc” value [3, 10] was 0.08 ± 0.006 Vcap/Vcmc. For the same compound, the “SI, % with respect to the control” value ([4]; 0.01 ng/ml) was 10%, the “SI, % with respect to the control” value ([4]; 0.05 ng/ml) was 20* % and the “SI, % with respect to the control” value ([4]; 0.1 ng/ml) was 22* %. For the same compound, the “SI, % with respect to the control” value ([4]; 0.5 ng/ml) was 20* %, the “SI, % with respect to the control” value ([4]; 1.0 ng/ml) was 15* % and the “SI, % with respect to the control” value ([4]; 2.0 ng/ml) was 20* %. The “SI, % with respect to the control” value ([4]; 10.0 ng/ml) was 27* % and the “SI, % with respect to the control” value ([4]; 20.0 ng/ml) was 8%.
